Data on 13 compounds can be found in ChEMBL document CHEMBL1201862, “PubChem BioAssay data set” (2004).

Calls of active or inactive are those of the source. Where only a bound is given, the exact number is not on record here.

One assay concerns P388/ADR. Put plainly: cells. Type of assay: functional. The note with it: Mus musculus.
A further assay has as its system P388. Put plainly: cells. The format is functional. The note with it: Mus musculus.
The next assay has as its system SN12K1. Put plainly: cells. Type of assay: functional. The following applies: Homo sapiens.
The target in assay [1] is T1, Sentrin-specific protease 6 (Homo sapiens, UniProt Q9GZR1).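 Further: Luminescence-based dose-response confirmatory assay of SENP6 inhibition, following up an ultra-high-throughput screen.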
T1 sequence (Q9GZR1 whole entry): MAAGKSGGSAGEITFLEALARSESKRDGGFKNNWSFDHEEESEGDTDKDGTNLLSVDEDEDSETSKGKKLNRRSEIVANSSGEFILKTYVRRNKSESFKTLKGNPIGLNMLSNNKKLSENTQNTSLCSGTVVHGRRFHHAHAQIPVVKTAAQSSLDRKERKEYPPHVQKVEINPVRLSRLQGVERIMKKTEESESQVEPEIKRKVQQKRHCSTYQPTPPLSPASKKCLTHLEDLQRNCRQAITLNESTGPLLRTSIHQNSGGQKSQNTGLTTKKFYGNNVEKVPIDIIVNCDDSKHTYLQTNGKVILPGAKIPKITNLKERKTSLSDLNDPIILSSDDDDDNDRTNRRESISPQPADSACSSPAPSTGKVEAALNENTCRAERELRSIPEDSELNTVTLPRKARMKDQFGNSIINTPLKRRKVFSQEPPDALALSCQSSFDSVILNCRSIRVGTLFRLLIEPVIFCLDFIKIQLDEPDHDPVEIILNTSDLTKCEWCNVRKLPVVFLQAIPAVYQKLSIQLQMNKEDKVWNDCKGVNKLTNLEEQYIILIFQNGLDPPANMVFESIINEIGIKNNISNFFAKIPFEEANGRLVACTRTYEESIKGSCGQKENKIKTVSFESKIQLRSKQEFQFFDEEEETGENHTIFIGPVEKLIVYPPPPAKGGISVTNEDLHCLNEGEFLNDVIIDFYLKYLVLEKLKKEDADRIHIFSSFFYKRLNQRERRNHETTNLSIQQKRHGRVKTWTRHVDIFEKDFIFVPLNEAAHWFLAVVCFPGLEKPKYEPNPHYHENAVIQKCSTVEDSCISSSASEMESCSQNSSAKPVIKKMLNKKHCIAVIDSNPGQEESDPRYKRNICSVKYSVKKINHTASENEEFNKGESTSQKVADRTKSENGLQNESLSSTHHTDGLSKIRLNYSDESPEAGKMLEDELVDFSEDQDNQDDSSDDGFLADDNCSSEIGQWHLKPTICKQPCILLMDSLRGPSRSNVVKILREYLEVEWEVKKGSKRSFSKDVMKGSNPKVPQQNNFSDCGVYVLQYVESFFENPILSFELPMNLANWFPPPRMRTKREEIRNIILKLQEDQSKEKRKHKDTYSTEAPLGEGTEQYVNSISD
The format is functional.

For a further assay, the target named is T2, Caspase-3 (Homo sapiens, UniProt P42574).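 Further: Dose-response selectivity test against caspase-3 for candidate inhibitors of sentrin-specific proteases (SENPs).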
T2 sequence (P42574 whole entry): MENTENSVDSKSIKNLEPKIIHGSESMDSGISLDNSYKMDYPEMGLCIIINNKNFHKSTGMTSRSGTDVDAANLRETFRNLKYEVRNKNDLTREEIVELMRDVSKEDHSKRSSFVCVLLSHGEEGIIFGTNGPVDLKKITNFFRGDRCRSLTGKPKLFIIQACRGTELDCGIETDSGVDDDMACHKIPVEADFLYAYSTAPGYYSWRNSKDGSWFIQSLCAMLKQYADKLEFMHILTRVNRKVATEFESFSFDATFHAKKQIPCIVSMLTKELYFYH
Type of assay: functional.

Assay [2] concerns the target T3, Sentrin-specific protease 7 (Homo sapiens, UniProt Q9BQF6).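 Further: Luminescence-based dose-response confirmation of ultra-high-throughput screening hits, measuring inhibition of SENP7.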
T3 sequence (Q9BQF6 whole entry): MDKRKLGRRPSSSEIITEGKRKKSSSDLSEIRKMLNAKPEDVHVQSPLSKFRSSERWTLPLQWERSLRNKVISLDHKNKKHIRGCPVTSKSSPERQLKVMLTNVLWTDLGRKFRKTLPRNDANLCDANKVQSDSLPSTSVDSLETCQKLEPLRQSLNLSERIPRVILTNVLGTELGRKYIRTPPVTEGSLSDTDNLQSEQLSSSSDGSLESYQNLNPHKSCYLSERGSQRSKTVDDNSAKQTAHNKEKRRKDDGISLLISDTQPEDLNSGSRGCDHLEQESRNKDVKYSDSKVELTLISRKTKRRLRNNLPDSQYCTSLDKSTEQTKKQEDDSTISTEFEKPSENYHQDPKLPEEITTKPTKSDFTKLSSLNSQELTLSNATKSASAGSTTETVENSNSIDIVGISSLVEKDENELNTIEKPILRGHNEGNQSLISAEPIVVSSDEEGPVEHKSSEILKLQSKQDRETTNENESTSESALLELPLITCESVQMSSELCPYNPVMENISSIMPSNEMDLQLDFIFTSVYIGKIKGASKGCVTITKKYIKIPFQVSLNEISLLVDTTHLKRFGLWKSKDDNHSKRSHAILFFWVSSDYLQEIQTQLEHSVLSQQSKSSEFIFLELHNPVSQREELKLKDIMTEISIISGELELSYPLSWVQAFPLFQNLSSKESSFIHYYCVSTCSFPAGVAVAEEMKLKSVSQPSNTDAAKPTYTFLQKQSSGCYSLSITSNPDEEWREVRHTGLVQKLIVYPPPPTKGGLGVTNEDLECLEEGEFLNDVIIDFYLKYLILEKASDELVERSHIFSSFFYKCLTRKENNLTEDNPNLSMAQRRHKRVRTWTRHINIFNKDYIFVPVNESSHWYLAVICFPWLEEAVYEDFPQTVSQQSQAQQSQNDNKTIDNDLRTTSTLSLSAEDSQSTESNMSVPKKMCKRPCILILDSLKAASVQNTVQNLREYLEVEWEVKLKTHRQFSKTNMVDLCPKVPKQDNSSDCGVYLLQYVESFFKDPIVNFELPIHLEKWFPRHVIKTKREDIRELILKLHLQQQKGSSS
The format is functional.

Assay [3] addresses T4, Sentrin-specific protease 8 (Homo sapiens, UniProt Q96LD8).
T4 sequence (Q96LD8 whole entry): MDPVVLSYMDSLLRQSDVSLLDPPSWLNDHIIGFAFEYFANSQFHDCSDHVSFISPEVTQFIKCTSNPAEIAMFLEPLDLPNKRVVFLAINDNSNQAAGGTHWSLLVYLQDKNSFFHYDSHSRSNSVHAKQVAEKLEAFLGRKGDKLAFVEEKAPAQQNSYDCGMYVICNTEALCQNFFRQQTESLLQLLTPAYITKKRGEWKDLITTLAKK
Type of assay: functional.

Assay [4] in a line: Luminescence Cell-Based Dose Confirmation HTS to Identify Activators of 5'UTR Stem-Loop Driven Alpha-Synuclein mRNA Translation in H4 Neuroglioblastoma Cells. [Related pubchem assays: 1829 (Project Summary), 1814 (Primary HTS)]. Type of assay: functional.
Assay [5] can be described thus: Luminescence Cell-Based Dose Response HTS to Identify Activators of Luciferase Translation or Activity in H4 […] Cells. [Related pubchem assays: 1829 (Project Summary), 1814 (Primary HTS)]. Type of assay: functional.
For a further assay, the system named is H4. Put plainly: Luminescence Cell-Based Dose Response HTS to Identify Activators of 5'UTR Stem-Loop Driven Prion Protein mRNA Translation in H4 Neuroglioblastoma Cells. [Related pubchem assays: 1829 (Project Summary), 1814 (Primary HTS)]. Type of assay: functional. The note with it: Homo sapiens.
For assay [6], the target named is T5, Histone-lysine N-methyltransferase NSD2 (Homo sapiens, UniProt O96028).
T5 sequence (O96028 whole entry): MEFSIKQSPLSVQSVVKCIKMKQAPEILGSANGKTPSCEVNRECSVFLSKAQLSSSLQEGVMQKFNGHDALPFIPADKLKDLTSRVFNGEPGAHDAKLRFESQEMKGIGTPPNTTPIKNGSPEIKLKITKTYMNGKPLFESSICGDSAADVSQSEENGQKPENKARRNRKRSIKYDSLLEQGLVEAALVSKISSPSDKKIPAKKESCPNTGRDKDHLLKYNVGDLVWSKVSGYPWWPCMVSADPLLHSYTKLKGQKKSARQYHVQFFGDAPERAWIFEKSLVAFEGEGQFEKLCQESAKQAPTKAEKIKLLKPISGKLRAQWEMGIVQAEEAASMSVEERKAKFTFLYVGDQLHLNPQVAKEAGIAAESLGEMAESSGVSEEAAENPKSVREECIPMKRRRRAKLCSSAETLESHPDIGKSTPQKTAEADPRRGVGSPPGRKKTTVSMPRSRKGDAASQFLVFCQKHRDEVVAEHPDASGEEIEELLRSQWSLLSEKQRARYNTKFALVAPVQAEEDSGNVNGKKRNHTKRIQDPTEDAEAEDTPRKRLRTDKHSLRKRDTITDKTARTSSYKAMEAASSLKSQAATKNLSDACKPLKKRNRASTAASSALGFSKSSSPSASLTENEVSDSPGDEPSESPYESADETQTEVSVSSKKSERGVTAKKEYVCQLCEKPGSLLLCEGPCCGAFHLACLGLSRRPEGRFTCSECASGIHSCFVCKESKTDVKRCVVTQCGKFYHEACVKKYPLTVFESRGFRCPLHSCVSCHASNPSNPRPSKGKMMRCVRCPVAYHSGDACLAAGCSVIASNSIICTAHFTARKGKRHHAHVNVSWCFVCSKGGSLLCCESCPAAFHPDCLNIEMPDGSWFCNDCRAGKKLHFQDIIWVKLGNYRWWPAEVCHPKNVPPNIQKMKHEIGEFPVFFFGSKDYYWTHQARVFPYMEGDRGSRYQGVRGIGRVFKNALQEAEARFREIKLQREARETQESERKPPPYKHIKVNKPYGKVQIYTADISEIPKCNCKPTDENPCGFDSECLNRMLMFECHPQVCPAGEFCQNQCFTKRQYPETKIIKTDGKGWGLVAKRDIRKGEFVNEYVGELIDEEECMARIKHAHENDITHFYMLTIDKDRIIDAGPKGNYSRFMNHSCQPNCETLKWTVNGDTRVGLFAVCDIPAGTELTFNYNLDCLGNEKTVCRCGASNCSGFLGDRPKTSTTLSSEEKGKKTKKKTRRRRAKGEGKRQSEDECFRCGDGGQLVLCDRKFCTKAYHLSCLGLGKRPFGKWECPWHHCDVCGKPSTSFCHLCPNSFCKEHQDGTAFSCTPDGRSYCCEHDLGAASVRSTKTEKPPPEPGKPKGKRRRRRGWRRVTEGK
Type of assay: biochemical.

In another assay the target is Cytochrome P450 3A4 (Homo sapiens, UniProt P08684).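 Further: CYP3A4 tested as one member of a cytochrome P450 panel screen.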
Sequence of Cytochrome P450 3A4 (P08684 whole entry): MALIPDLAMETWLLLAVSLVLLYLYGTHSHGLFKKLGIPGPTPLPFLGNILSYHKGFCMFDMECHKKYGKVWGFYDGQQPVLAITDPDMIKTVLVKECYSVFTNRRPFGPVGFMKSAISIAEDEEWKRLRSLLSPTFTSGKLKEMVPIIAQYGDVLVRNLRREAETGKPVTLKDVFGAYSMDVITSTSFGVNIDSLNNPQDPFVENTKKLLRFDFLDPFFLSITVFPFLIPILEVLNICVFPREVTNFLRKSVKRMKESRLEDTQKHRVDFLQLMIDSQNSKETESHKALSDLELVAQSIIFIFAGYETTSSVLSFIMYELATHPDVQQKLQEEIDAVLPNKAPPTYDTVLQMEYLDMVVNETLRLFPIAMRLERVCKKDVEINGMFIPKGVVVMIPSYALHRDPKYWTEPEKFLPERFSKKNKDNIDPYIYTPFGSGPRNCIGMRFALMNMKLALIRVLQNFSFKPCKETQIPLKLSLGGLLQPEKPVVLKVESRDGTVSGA

For orientation: GI50 means the concentration that inhibits growth by half. `NC1=NCN(C2OC(CO)C(O)C2O)C(=O)N1` (centres undefined): the GI50 was 10.4 µM (inactive) in the assay with P388/ADR, 8.57 µM (inactive) in the assay with P388 and 13.9 µM (inactive) in the assay on SN12K1.
One may read the IC50 as the concentration that gives 50% inhibition. Take `Cc1ccccc1NS(=O)(=O)c1cccc(C(=O)Nc2cccc(C(=O)O)c2)c1`: the IC50 in [1] is 23.3 µM (active); at Caspase-3, 66.7 µM (active); in assay [2], 9.34 µM (active); in assay [3], 23.7 µM (active).
Take `CN(C)/N=N/c1ccc([N+](=O)[O-])cc1C(N)=O`: the GI50 in the assay on P388/ADR, with P388 and with SN12K1 was > 100 µM (inactive) throughout.
Take `C=C(C)C(O)CC/C(C)=C/Cc1c(O)ccc(C(=O)/C=C/c2ccc(O)cc2)c1O` (centres undefined) [XANTHOANGELOL B]: the IC50 in assay [1] was 4.22 µM (active); on Caspase-3, 28.1 µM (active); in [2] it was 3.39 µM (active); in [3], 5.08 µM (active).
As to `CCCn1cc2c3c(cccc31)C1C=C(C)CN(C)C1C2` (centres undefined), the GI50 with P388/ADR is 3.34 µM (inactive); in the assay on P388 it was 5.69 µM (inactive); in the assay on SN12K1, 14.2 µM (inactive).
Broadly, the EC50 is the concentration giving half of the maximal effect. For the compound `COc1ccc2cc(C(=O)NCCc3ccccc3)[nH]c2c1`, the EC50 in [4] was 43.2 µM (active); in assay [5] it was 48 µM (active); in the assay with H4, 99.5 µM (active).
As for `CCC1(O)C(=O)OCc2c1cc1n(c2=O)Cc2cc3cc4c(cc3nc2-1)OCO4` (centres undefined), the GI50 with P388/ADR, in the assay on P388 and with SN12K1 was < 0.01 µM (active) throughout.
For the compound `CCCCN1C(=O)C(=O)N(CC(=O)N2N=C3/C(=C/c4ccco4)CCCC3C2c2ccco2)C1=O` (centres undefined), the results for the EC50 (in assay [4]; in assay [5]; in the assay on H4) were > 120 µM (not active), 14.8 µM (active) and 19.6 µM (active), respectively.
Regarding `O=C(c1ccccc1)c1ccc(Cn2cc(-c3ccccc3)nn2)cc1`, the IC50 in [1] is 19.5 µM (active); on Caspase-3, 32.3 µM (active); in assay [2], 5.67 µM (active); in assay [3] it was 23.9 µM (active).
Regarding `COc1cc(Cc2nccc3cc(OC)c(OC)cc23)c(C(C)=O)cc1OC`, the GI50 in the assay with P388/ADR is 14.5 µM (inactive); in the assay on P388 it was 1.66 µM (inactive); in the assay on SN12K1, 20.4 µM (inactive).
What is called AC50 is the concentration giving half of the maximal activity seen. For the compound `COC1=C(C)C(=O)C2=C(C1=O)C1C3CC4=C(C(=O)C(OC)=C(C)C4=O)C(CNC(=O)C(C)=O)N3C(C#N)C(C2)N1C` (centres undefined), the GI50 with P388/ADR was 0.0448 µM (active); with P388, 0.01 µM (active); in the assay with SN12K1, < 0.01 µM (active). Moreover, the AC50 in assay [6] is 8.92 µM (active).
For the compound `O=C(Nc1ccccc1[N+](=O)[O-])C1COc2ccccc2O1` (centres undefined), the concentration giving a half-maximal response (EC50) in assay [4] was 0.244 µM (active); in [5] it was > 120 µM (not active); in the assay on H4, 6.61 µM (active).
As to `C=C1C(=O)O[C@@H]2[C@H]3O[C@]3(C)CCC=C(C)CC[C@@H]12`, the figures for the GI50 with P388/ADR, in the assay on P388 and with SN12K1 were 4.84 µM (inactive), 6.59 µM (inactive) and 16.4 µM (inactive), respectively. The AC50 at Cytochrome P450 3A4 is 10 µM (inconclusive).
